ChEMBL document CHEMBL1158522, “Design, synthesis, and pharmacological evaluation of phenoxy pyridyl derivatives as dual norepinephrine reuptake inhibitors and 5-HT1A partial agonists” (Bioorg Med Chem Lett, 2010)

How the values were obtained:
[1] = target: T1, 5-hydroxytryptamine receptor 1A (Homo sapiens, UniProt P08908); test: Displacement of [3H]8-OH-DPAT from human cloned 5HT1A receptor by filtration techniques
T1 sequence (P08908 whole entry): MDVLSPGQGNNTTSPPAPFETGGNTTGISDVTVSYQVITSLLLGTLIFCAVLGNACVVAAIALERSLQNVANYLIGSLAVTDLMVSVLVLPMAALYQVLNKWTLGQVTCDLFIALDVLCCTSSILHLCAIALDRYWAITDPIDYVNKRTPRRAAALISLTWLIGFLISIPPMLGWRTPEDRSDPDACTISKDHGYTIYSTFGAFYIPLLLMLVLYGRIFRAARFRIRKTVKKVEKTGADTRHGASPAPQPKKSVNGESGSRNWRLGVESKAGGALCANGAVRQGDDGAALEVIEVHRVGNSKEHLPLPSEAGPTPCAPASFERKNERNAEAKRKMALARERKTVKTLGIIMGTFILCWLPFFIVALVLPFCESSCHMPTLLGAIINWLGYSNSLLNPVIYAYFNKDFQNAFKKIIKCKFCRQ

[2] = target: T2, Sodium-dependent noradrenaline transporter (Homo sapiens, UniProt P23975); test: Displacement of [3H]nisoxetine from human NET expressed in HEK293 cells by scintillation proximity assay; assay type: cell-based
T2 sequence (P23975 whole entry): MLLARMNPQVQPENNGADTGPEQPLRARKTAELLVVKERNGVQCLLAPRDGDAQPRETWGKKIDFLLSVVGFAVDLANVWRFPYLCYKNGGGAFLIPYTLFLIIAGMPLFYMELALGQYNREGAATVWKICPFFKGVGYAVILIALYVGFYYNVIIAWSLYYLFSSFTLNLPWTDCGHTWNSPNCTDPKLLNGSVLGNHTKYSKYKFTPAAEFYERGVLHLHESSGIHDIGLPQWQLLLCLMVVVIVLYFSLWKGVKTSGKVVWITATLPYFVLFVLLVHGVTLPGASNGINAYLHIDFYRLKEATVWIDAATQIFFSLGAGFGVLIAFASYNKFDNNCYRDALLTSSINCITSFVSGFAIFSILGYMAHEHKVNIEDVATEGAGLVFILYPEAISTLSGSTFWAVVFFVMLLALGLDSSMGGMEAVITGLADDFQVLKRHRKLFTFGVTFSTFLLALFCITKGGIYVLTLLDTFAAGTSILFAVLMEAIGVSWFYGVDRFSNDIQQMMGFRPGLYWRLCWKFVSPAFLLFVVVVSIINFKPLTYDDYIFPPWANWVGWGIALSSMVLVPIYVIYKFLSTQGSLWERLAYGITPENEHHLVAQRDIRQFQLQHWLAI

[3] = target: T3, Sodium-dependent dopamine transporter (Homo sapiens, UniProt Q01959); test: Displacement of [3H]WIN-35428 from human DAT expressed in HEK293 cells by scintillation proximity assay; assay type: cell-based
T3 sequence (Q01959 whole entry): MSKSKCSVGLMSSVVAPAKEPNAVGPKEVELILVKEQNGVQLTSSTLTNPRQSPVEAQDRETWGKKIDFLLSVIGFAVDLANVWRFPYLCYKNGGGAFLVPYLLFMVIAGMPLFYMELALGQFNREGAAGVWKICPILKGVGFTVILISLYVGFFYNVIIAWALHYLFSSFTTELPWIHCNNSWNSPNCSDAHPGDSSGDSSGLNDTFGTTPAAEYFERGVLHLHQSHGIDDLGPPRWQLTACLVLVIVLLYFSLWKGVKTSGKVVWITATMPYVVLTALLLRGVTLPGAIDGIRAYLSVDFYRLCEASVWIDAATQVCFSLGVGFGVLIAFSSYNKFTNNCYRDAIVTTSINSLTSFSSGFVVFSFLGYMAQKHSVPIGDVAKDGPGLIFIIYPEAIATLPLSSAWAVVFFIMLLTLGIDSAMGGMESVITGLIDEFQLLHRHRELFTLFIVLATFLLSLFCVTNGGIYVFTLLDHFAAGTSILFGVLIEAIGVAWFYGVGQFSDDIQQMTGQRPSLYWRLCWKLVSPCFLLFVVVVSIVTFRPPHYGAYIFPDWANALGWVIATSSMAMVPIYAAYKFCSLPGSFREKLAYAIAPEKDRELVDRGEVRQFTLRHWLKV

[4] = target: T4, Sodium-dependent serotonin transporter (Homo sapiens, UniProt P31645); test: Displacement of [3H]citalopram from human SERT expressed in HEK293 cells by scintillation proximity assay; assay type: cell-based
T4 sequence (P31645 whole entry): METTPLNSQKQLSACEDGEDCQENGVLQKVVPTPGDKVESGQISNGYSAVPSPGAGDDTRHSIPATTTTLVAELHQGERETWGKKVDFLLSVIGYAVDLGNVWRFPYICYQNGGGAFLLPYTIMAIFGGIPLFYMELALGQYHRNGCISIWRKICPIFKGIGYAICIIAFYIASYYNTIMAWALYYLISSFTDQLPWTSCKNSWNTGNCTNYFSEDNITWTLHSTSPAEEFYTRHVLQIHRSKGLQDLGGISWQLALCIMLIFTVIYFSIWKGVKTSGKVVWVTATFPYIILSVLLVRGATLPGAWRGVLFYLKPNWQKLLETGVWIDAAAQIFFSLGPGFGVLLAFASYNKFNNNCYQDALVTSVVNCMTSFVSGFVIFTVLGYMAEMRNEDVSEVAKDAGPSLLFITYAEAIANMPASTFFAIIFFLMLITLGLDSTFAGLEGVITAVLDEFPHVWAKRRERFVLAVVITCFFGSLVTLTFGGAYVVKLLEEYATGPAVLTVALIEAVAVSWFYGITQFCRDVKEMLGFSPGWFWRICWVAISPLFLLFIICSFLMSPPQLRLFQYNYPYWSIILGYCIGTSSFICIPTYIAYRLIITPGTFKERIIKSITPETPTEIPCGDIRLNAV

[5] = target: T5, 5-hydroxytryptamine receptor 1A (Homo sapiens) (UniProt P08908); test: Intrinsic activity at 5HT1A receptor by GTPgammaS assay; assay type: functional
T5 sequence (whole entry): T1 sequence (P08908 whole entry)

[6] = target: T2, Sodium-dependent noradrenaline transporter; test: Agonist activity at NET; assay type: functional
[7] = target: T3, Sodium-dependent dopamine transporter; test: Agonist activity at DAT; assay type: functional
[8] = target: T4, Sodium-dependent serotonin transporter; test: Agonist activity at SERT; assay type: functional
[9] = Ratio of EC50 for SERT to EC50 for NET
[10] = system: Rattus norvegicus; test: Ex vivo NET occupancy in rat brain at 10 mg/kg, sc after 1 hr; assay type: functional; settings: route subcutaneous
[11] = system: Rattus norvegicus; test: Ex vivo 5HT1A receptor occupancy in rat brain at 10 mg/kg, sc after 1 hr; assay type: functional; settings: route subcutaneous
[12] = Plasma concentration rat at 10 mg/kg, sc after 1 hr; assay type: ADME, organism-based; parameters: dose 10 mg/kg, route subcutaneous
[13] = target: T1, 5-hydroxytryptamine receptor 1A; test: Agonist activity at 5HT1A receptor by GTPgammaS assay; assay type: functional

Compound	Ki [1] [nM]	Ki [2] [nM]	Ki [3] [nM]	Ki [4] [nM]	Intrinsic activity [5] [%]	EC50 [6] [nM]	EC50 [7] [nM]	EC50 [8] [nM]	Ratio EC50 [9]	concentration at 1 h [12] [ng/mL]	EC50 [13] [nM]	Activity [10] [%]	Activity [11] [%]
COc1ccccc1Oc1ncccc1C1CCNCC1	92	292	6410	610	–	–	–	–	–	–	–	–	–
Fc1cccc(Oc2ncccc2C2CCNCC2)c1F	173	1810	> 6650	109	–	–	–	–	–	–	–	–	–
c1ccc(Oc2ncccc2C2CCNCC2)cc1	101	2440	4310	–	–	–	–	–	–	–	–	–	–
Clc1ccccc1Oc1ncccc1N1CCNCC1	4.5	747	> 6320	> 4710	–	–	–	–	–	–	–	–	–
Fc1cccc(Cl)c1Oc1ncccc1N1CCNCC1	3.7	663	> 6320	> 4710	–	–	–	–	–	–	–	–	–
Clc1ccc(Oc2ncccc2C2CCNCC2)c(Cl)c1	37	413	> 5500	2.7	–	–	–	–	–	–	–	–	–
Cc1ccccc1Oc1ncccc1C1CCNCC1	60	330	> 6170	292	–	–	–	–	–	–	–	–	–
FC(F)(F)c1ccccc1Oc1ncccc1C1CCNCC1	71	140	> 6650	203	–	–	–	–	–	–	–	–	–
Clc1cccc(Oc2ncccc2C2CCNCC2)c1Cl	37	25	310	2	–	–	–	–	–	–	–	–	–

Further molecules by falling Ki [1], results first:

Ki [1] [nM]	Ki [2] [nM]	Ki [3] [nM]	Ki [4] [nM]	Intrinsic activity [5] [%]	EC50 [6] [nM]	EC50 [7] [nM]	EC50 [8] [nM]	Ratio EC50 [9]	concentration at 1 h [12] [ng/mL]	EC50 [13] [nM]	Compound	Activity [10] [%]	Activity [11] [%]
29	143	2590	30	–	–	–	–	–	–	–	Fc1ccc(Oc2ncccc2C2CCNCC2)c(F)c1	–	–
24	276	6410	887	–	–	–	–	–	–	–	COc1cccc(F)c1Oc1ncccc1C1CCNCC1	–	–
17	247	> 6220	251	–	–	–	–	–	–	–	Fc1ccc(Cl)c(Oc2ncccc2C2CCNCC2)c1	–	–
16	74	5150	57	–	–	–	–	–	–	–	Clc1ccccc1Oc1ncccc1C1CCNCC1	–	–
13	536	> 6180	728	–	–	–	–	–	–	–	Fc1ccccc1Oc1ncccc1C1CCNCC1	–	–
11	33	> 6180	194	37	9	6880	409	45	777	89	Fc1cccc(Cl)c1Oc1ncccc1C1CCNCC1	75.3	37.4
10	27	> 6370	102	–	–	–	–	–	–	–	Cc1cccc(F)c1Oc1ncccc1C1CCNCC1	–	–
7.2	–	> 6630	1850	–	–	–	–	–	–	–	Fc1cccc(F)c1Oc1ncccc1C1CCNCC1	–	–
5.5	921	> 6140	36	–	–	–	–	–	–	–	Cc1ccc(Oc2ncccc2C2CCNCC2)c(F)c1	–	–
4.6	32	278	1260	84	28	498	915	33	–	341	Fc1ccccc1Oc1cccc(F)c1C1CCNCC1	–	–
